# Reference: patent publication EP0961591B1, “METHOD TO ENHANCE TISSUE AC[…] RADIOLABELED COMPOUNDS” (BOARD OF SUPERVISORS OF LOUISIANA STATE UNIVERSITY AND …, priority 1997, dated 1999)
# Bridges are numbered along the chain shown (N, C = ends). Where no end group is shown, it is not given here. [ ]: non-standard residue; d: D form.
# Key:
# [1] = test system: Human placental-derived vascular endothelial cells; experiment: Binding and internalization in angiogenic vascular endothelial cells; conditions: acid wash
# Description: Human placental-derived vascular endothelial cells were used to assay for cell binding of the somatostatin analog, ^125I-JIC-2D. The radioligand, a somatostatin analog, ^125I-JIC-2D, was made by solid phase peptide synthesis as described in U.S. Patent No. 5,597,894. This peptide has an amino acid sequence of the following: D-Lys-D-Tyr-D-Lys-D-Tyr-D-Lys-c[Cys-Phe-D-Trp-Lys-Thr-Cys]-Thr-NH2. The cells were obtained by growing discs of human placental veins in fibrinclots for 14 days. […] These discs and their angiogenic sprouts are harvested mechanically and dissociated by vortexing. The vein discs are then discarded and the endothelial cells pooled. Cells were harvested, counted with a hemocytometer, and resuspended in binding buffer (Minimum Essential Medium (MEM), 10 mM Hepes, 0.01 % BSA). A standard assay used 500,000 cells in 1 ml of binding buffer. […] At the termination of the experiment, the incubation medium was removed, the cells were rinsed twice with Hanks balanced salt solution (HBSS), and the radioactivity in the cells determined using a gamma counter. This level of radioactivity represents total binding, which includes both membrane-bound and internalized fractions. Specific binding was determined by calculating the difference in the levels of measured radioactivity without the unlabeled competitor minus the radioactivity with the unlabeled competitor. […]
# IMR-32 cells = experiment: Nuclear translocation (Percoll density gradient fractionation); type: cell-based, human
# Experimental: The cells were washed twice in media at 4°C and resuspended in cold isotonic sucrose. The labeled cells were passed through a ball-bearing homogenizer three times to disrupt cell membranes while leaving approximately 95% of the cell nuclei intact, according to the method of Balch et al., Arch. Biochem. Biophys., vol. 240, p. […] The cell homogenate was mixed with Percoll to give a final concentration of […] Percoll and spun at 20,400 rpm in a Beckman 40.2 rotor for 45 min to generate a density gradient. Density marker beads (Pharmacia) were used to indicate density levels in the tube. The contents of the tube were fractionated in an ISCO Density Gradient Fractionator. The resulting tubes were assayed for content of radiolabeled somatostatin or analogs, DNA to indicate nuclei, protein, the plasma membrane marker 5'-nucleotidase, and the lysosome marker N-acetylglucosaminidase. The usual assumption was made that the radioactivity measured in fractions rich in a certain cell component was in fact associated with that component; e.g., the radioactivity measured in a fraction rich in plasma membrane was due to association of the radiolabeled compound with the plasma membrane.
# The density distribution is represented by the triangles in the figures. Nuclear fractions were found in the density gradient represented by Tubes 12-15, and membrane fractions by Tubes 0-6. […] Radiodecaying nuclei will then ionize DNA, resulting in cellular damage.
Substance,binding and internalization [1],cellular distribution (membrane vs nuclear fractions) (IMR-32 cells; 1 hr),cellular distribution (membrane vs nuclear fractions) (IMR-32 cells; 4 hr),cellular distribution (membrane vs nuclear fractions) (IMR-32 cells; 24 hr)
[dK][dY][dK][dY][dK]CF[dW]KTCT-NH2 (disulfide 6-11) [^125I-JIC-2D],the vast majority of the radioligand was internalized into the cell,,,
"^125I-somatostatin: radiolabeled native somatostatin (AGCKNFFWKTFTSC; disulfide 3-14 (inferred); ends not checked; also: 125I label, position not given here; UniProt P61278 103-116, looked up)",,both membrane binding and small amounts of nuclear binding,the plasma membrane binding appeared to have peaked and the nuclear fraction was dissipating,essentially no plasma membrane or nuclear binding was seen
